Some results are limits rather than exact numbers.

This experiment addresses T1, recombinant human IDO1 enzyme (Homo sapiens, UniProt P14902).
T1 construct: purchased NTRC NTRC-hlDO-10K
Kind of experiment: In vitro hIDO1 enzyme activity test (NFK Green fluorescence). It counts as biochemical. Conditions: recombinant human IDO1, L-tryptophan substrate, pH 6.5. How it is done: The change of NFK production was detected by using the NFK Green™ fluorescent molecule, which is the metabolite of the IDO1 enzyme, and the IC50 value of the compound was used as an index, to evaluate the inhibitory effect of the compound on the recombinant human IDO1 enzyme.
IDO1 Enzyme Activity Assay Kit, NTRC # NTRC-hlDO-10K;
The compound was diluted to 1 mM in DMSO, and then diluted 3-fold in duplicate wells, with 10 gradients. 48 μL of 50 mM phosphate buffer (pH 6.5) was transferred to the compound plate via Bravo automated liquid handling platform. 2 μL of the diluted solution of the compound in DMSO was then added and mixed, followed by transferring 10 μL therein to an enzyme reaction plate.
The IDO1 enzyme was diluted to 20 nM in the reaction buffer (50 mM phosphate buffer pH 6.5, 0.1% Tween-20, 2% glycerol, 20 mM ascorbic acid, 20 μg/mL catalase and 20 μM methylene blue), and 20 μL of the solution was transferred to an enzyme reaction plate and incubated at 23° C. for 30 min. The reaction was started by adding 10 μL of 400 μM L-type tryptophan substrate and incubated at 23° C. for 90 min. 10 μL of NFK Green™ fluorescent dye was added, and the plate was sealed with the sealing film, incubated at 37° C. for 4 h, and then read on Envision Multimode Plate Reader (Ex 400 nm/Em 510 nm).
The control wells with the IDO1 enzyme but no compound was set as 0% inhibition, and the control wells without the IDO1 enzyme was set as 100% inhibition, and the IC50 value of the compound was calculated by analyzing the data with XLFit 5.

T1 sequence (P14902 whole entry): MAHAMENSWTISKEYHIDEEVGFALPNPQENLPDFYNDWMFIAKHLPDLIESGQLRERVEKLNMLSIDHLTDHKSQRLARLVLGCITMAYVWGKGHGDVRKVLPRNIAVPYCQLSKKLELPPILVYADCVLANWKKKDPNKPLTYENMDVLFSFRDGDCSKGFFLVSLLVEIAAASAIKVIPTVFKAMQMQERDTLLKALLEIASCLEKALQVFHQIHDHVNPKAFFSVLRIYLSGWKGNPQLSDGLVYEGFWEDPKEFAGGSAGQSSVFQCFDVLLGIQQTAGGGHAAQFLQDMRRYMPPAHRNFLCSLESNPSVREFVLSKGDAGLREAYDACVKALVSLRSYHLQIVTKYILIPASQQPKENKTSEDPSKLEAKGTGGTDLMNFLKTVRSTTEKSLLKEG

The IC50 is the concentration that inhibits the measured activity by half. `OC(CC1c2nn(C(F)(F)F)cc2-c2cncn21)C1CCCCC1` (single isomer, unassigned) [Example 1, 1-cyclohexyl-2-(2-(trifluoromethyl)-2,8-dihydroimidazo[1′,5′:1,5]pyrrolo[3,4-c]pyrazol-8-yl)ethanol]: the IC50 is more than 10 µM.

For the molecule `OC(CC1c2nn(C(F)(F)F)cc2-c2cncn21)C1CCCCC1` (single isomer, unassigned) [Example 2, 1-cyclohexyl-2-(2-(trifluoromethyl)-2,8-dihydroimidazo[1′,5′:1,5]pyrrolo[3,4-c]pyrazol-8-yl)ethanol], the IC50 was more than 10 µM.

Consider `OC(CC1c2nn(C(F)(F)F)cc2-c2cncn21)C1CCCCC1` (single isomer, unassigned) [Example 3, 1-cyclohexyl-2-(2-(trifluoromethyl)-2,8-dihydroimidazo[1′,5′:1,5]pyrrolo[3,4-c]pyrazol-8-yl)ethanol], for which the IC50 was more than 10 µM.

In the case of `OC(CC1c2sccc2-c2cncn21)C1CCCCC1` (single isomer, unassigned) [Example 5, cyclohexyl-2-(8H-thieno[3′,2′:3,4]pyrrolo[1,2-c]imidazol-8-yl)ethanol], the IC50 was determined as 5.03 µM.

Take `OC(CC1c2sccc2-c2cncn21)C1CCCCC1` (single isomer, unassigned) [Example 6, cyclohexyl-2-(8H-thieno[3′,2′:3,4]pyrrolo[1,2-c]imidazol-8-yl)ethanol]: the IC50 came to 9.67 µM.

As to `OC(CC1c2sccc2-c2cncn21)C1CCCCC1` (single isomer, unassigned) [Example 8, cyclohexyl-2-(8H-thieno[3′,2′:3,4]pyrrolo[1,2-c]imidazol-8-yl)ethanol], the IC50 was determined as 0.0648 µM.

With `c1cc2c(s1)C(C1CCCCC1)n1cncc1-2` (single isomer, unassigned) [Example 13, 8-cyclohexyl-8H-thieno[3,4]pyrrolo[1,5-a]imidazole], the IC50 was more than 10 µM.

For `c1cc2c(s1)C(CC1CCCCC1)n1cncc1-2` (single isomer, unassigned) [Example 15, 8-(cyclohexylmethyl)-8H-thieno[3,4]pyrrolo[1,5-a]imidazole], the IC50 was found to be 5.22 µM.

Regarding `c1cc2c(s1)C(COC1CCCCC1)n1cncc1-2` (single isomer, unassigned) [Example 17, 8-((cyclohexyloxy)methyl)-8H-thieno[3′,2′:3,4]pyrrolo[1,2-c]imidazole], the IC50 came out at 0.338 µM.

For `c1cc2c(s1)C(COC1CCCCC1)n1cncc1-2` (single isomer, unassigned) [Example 18, 8-((cyclohexyloxy)methyl)-8H-thieno[3′,2′:3,4]pyrrolo[1,2-c]imidazole], the IC50 is more than 10 µM.

`Fc1cc2c(s1)C(CCC1CCCCC1)n1cncc1-2` (single isomer, unassigned) [Example 19, 8-(2-cyclohexylethyl)-2-fluoro-8H-thieno[3′,2′:3,4]pyrrolo[1,2-c]imidazole]: the IC50 was more than 10 µM.

Consider `Fc1cc2c(s1)C(CCC1CCCCC1)n1cncc1-2` (single isomer, unassigned) [Example 20, 8-(2-cyclohexylethyl)-2-fluoro-8H-thieno[3′,2′:3,4]pyrrolo[1,2-c]imidazole], for which the IC50 amounted to 0.586 µM.

As to `FC1(F)CCC(CCC2c3sccc3-c3cncn32)CC1` (single isomer, unassigned) [Example 21, 8-(2-(4,4-difluorocyclohexyl)ethyl)-8H-thieno[3′,2′:3,4]pyrrolo[1,2-c]imidazole], the IC50 turned out to be 9.16 µM.

`O=C1CC[C@H]2C[C@@H]([C@@H](O)CC3c4sccc4-c4cncn43)CCN12` (single isomer, unassigned) [Example 26]: the IC50 was more than 10 µM.

With `O=C1CC[C@H]2C[C@@H]([C@@H](O)CC3c4sccc4-c4cncn43)CCN12` (single isomer, unassigned) [Example 27], the IC50 came out at 0.869 µM.

With `c1cc2c(s1)C(C1CCCOC1)n1cncc1-2` (single isomer, unassigned) [Example 33, 8-(tetrahydro-2H-pyran-3-yl)-8H-thieno[3′,2′:3,4]pyrrolo[1,2-c]imidazole], the IC50 was more than 10 µM.

As for `c1cc2c(s1)C(C1CCCOC1)n1cncc1-2` (single isomer, unassigned) [Example 34, 8-(tetrahydro-2H-pyran-3-yl)-8H-thieno[3′,2′:3,4]pyrrolo[1,2-c]imidazole], the IC50 is more than 10 µM.

For `c1cc2c(s1)C(C1CCCOC1)n1cncc1-2` (single isomer, unassigned) [Example 35, 8-(tetrahydro-2H-pyran-3-yl)-8H-thieno[3′,2′:3,4]pyrrolo[1,2-c]imidazole], the IC50 was found to be 2.81 µM.

For `c1cc2c(s1)C(C1CCCOC1)n1cncc1-2` (single isomer, unassigned) [Example 36, 8-(tetrahydro-2H-pyran-3-yl)-8H-thieno[3′,2′:3,4]pyrrolo[1,2-c]imidazole], the IC50 amounted to 2.43 µM.

Take `c1cc2c(s1)C(C1CCOCC1)n1cncc1-2` (single isomer, unassigned) [Example 37, 8-tetrahydropyran-4-8H-thieno[3,4]pyrrolo[1,5-a]imidazole]: the IC50 stood at 2.4 µM.

Regarding `c1cc2c(s1)C(C1CCOCC1)n1cncc1-2` (single isomer, unassigned) [Example 38, 8-tetrahydropyran-4-8H-thieno[3,4]pyrrolo[1,5-a]imidazole], the IC50 is more than 10 µM.

On to `FC1(F)CCC([C@@H]2c3sccc3-c3cncn32)CC1` (single isomer, unassigned) [Example 40], for which the IC50 was more than 10 µM.

As for `OCC1(C2c3sccc3-c3cncn32)CCCCC1` (single isomer, unassigned) [Example 43, [1-(8H-thieno[3,4]pyrrolo[1,5-a]imidazol-8-yl)cyclohexyl]methanol], the IC50 was more than 10 µM.

Regarding `c1cc2c(s1)C(C1CCC3(CC1)CC3)n1cncc1-2` (single isomer, unassigned) [Example 44, 8-spiro[2.5]octan-6-yl-8H-thieno[3,4]pyrrolo[1,5-a]imidazole], the half-inhibitory concentration (IC50) was more than 10 µM.

With `c1cc2c(s1)C(C1CCC3(CC1)CC3)n1cncc1-2` (single isomer, unassigned) [Example 45, 8-spiro[2.5]octan-6-yl-8H-thieno[3,4]pyrrolo[1,5-a]imidazole], the IC50 came out at 3.83 µM.

On to `c1cc2c(s1)C(C13CCC(CC1)CC3)n1cncc1-2` (single isomer, unassigned) [Example 48, 8-(4-bicyclo[2.2.2]octyl)-8H-thieno[3,4]pyrrolo[1,5-a]imidazole], for which the IC50 worked out at 0.518 µM.

Take `c1cc2c(s1)C(C13CCC(CC1)CC3)n1cncc1-2` (single isomer, unassigned) [Example 49, 8-(4-bicyclo[2.2.2]octyl)-8H-thieno[3,4]pyrrolo[1,5-a]imidazole]: the 50% inhibitory concentration (IC50) is more than 10 µM.

`OC1CCCCC1C1c2sccc2-c2cncn21` (single isomer, unassigned) [Example 50, 2-(8H-thieno[3,4]pyrrolo[1,5-a]imidazol-8-yl)cyclohexanol]: the IC50 is more than 10 µM.

For the molecule `OC1CCCCC1C1c2sccc2-c2cncn21` (single isomer, unassigned) [Example 51, 2-(8H-thieno[3,4]pyrrolo[1,5-a]imidazol-8-yl)cyclohexanol], the IC50 was more than 10 µM.

As for `OC1CCCCC1C1c2sccc2-c2cncn21` (single isomer, unassigned) [Example 52, 2-(8H-thieno[3,4]pyrrolo[1,5-a]imidazol-8-yl)cyclohexanol], the IC50 was 0.676 µM.

For `c1ccc2c(c1)CCC(C1c3sccc3-c3cncn31)C2` (single isomer, unassigned) [Example 54, 8-tetrahydronaphthalen-2-yl-8H-thieno[3,4]pyrrolo[1,5-a]imidazole], the IC50 is more than 10 µM.

As to `c1ccc2c(c1)CCC(C1c3sccc3-c3cncn31)C2` (single isomer, unassigned) [Example 55, 8-tetrahydronaphthalen-2-yl-8H-thieno[3,4]pyrrolo[1,5-a]imidazole], the IC50 was more than 10 µM.

As to `c1ccc2c(c1)CCC(C1c3sccc3-c3cncn31)C2` (single isomer, unassigned) [Example 56, 8-tetrahydronaphthalen-2-yl-8H-thieno[3,4]pyrrolo[1,5-a]imidazole], the IC50 worked out at 0.851 µM.

As for `c1ccc2c(c1)CCC(C1c3sccc3-c3cncn31)C2` (single isomer, unassigned) [Example 57, 8-tetrahydronaphthalen-2-yl-8H-thieno[3,4]pyrrolo[1,5-a]imidazole], the IC50 stood at 0.886 µM.

On to `OC1CC(C2c3sccc3-c3cncn32)C1` (single isomer, unassigned) [Example 58, 3-(8H-thieno[3,4]pyrrolo[1,5-a]imidazol-8-yl)cyclobutanol], for which the IC50 came to 2.1 µM.

On to `OC1CC(C2c3sccc3-c3cncn32)C1` (single isomer, unassigned) [Example 59, 3-(8H-thieno[3,4]pyrrolo[1,5-a]imidazol-8-yl)cyclobutanol], for which the IC50 is more than 10 µM.

Turning to `OC1CC(C2c3sccc3-c3cncn32)C1` (single isomer, unassigned) [Example 60, 3-(8H-thieno[3,4]pyrrolo[1,5-a]imidazol-8-yl)cyclobutanol], the IC50 is more than 10 µM.

The record behind these values is patent US10487088B2, “Tricyclic compound serving as immunomodulator” (Chia Tai Tianqing Pharmaceutical Group Co., Ltd., priority 2016, dated 2019).
